For orientation: IC50 means the midpoint of a concentration-inhibition curve.

The results in this text go back to patent US11708344B2, “Flavone derivatives for the treatment and prophylaxis of hepatitis B virus disease” (Hoffmann-La Roche Inc., priority 2018, dated 2023).

The nature of data set [1]: Human microsome stability assay. In kind it is in vitro ADME. Conditions: human liver microsomes, 1 μM test compound, 0.5 mg/mL microsomal protein, 37° C., pH 7.4, 0-30 minutes. In a few lines:
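Parent compound remaining was measured by LC-MS/MS at 0, 3, 6, 9, 15 and 30 min, following ACN quench. Reactions held 1 μM compound and 0.5 mg/mL human liver microsomal protein in pH 7.4 phosphate buffer at 37 °C, started by NADPH regeneration (1 mM NADP, 1 mM MgCl2); controls lacked NADPH.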
On the technique in general: Microsomes from liver hold many membrane-bound enzymes, among them those of drug oxidation.

For data set [2], the system named is HBeAg (surrogate marker for cccDNA) in HepDES19 cells. Description: Engineered HepDES19 primary screen assay (HBeAg ELISA). The class given is cell-based, HBV. The note with it: Hepatitis B virus, HepDES19, 120 h, read-out: IC50 (HBeAg level, HepDES19 primary screen assay), HepDES19 cells, 5 days compound incubation, HBeAg ELISA. The gist of the method: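 IC50 values come from 4-parameter logistic fits of HBeAg ELISA signal, the cccDNA surrogate, with CCK-8 run in parallel for viability. Compounds at half-log dilutions with 1% DMSO were applied for 5 days at 37 °C to HepDES19 cells previously cultured 8 days without Tet.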
In general terms: An ELISA detects its analyte on a solid surface through an enzyme-linked reagent.

The subject of data set [3] is HBsAg in HBV-infected PHH. Briefly: Cryopreserved primary human hepatocytes (PHH) HBV infection assay, extracellular HBsAg (CLIA). In kind it is cell-based. Conditions: Hepatitis B virus, Hepatocyte, 216 h, read-out: HBsAg IC50, Cryopreserved PHH infected with HBV, 9 days post-compound treatment, extracellular HBsAg. As to the method: This assay is used to confirm the anti-HBV effect of the compounds in HBV PHH infection assay. Cryopreserved PHH (BioreclamationIVT, Lot YJM) was thawed at 37° C. and gently transferred into pre-warmed InVitroGRO HT medium (BioreclamationIVT, Cat. S03317). The mixture was centrifuged at 70 relative centrifugal force (RCF) for 3 minutes at RT, and the supernatant was discarded. Pre-warmed InVitroGRO CP medium (BioreclamationIVT, Cat #S03316) was added to the cell pellet to gently re-suspend cells. The cells were seeded at the density of 5.8×10^4 cells per well to collagen I coated 96-well plate (Gibco, Cat. A1142803) with the InVitroGRO CP medium. All plates were incubated at 37° C. with 5% CO2 and 85% humidity.
At 20 hours after plating, the medium was changed to PHH culture medium (Dulbecco's Modified Eagle Medium (DMEM)/F12 (1:1) (Gibco, Cat. 11320-033), 10% fetal bovine semm (Gibco Cat. 10099141), 100 U/mL penicillin, 100 μg/mL streptomycin (Gibco, Cat. 151401-122), […] (Invitrogen Cat. PHG0311L), 20 ng/mL dexamethasone (Sigma, Cat. D4902) and 250 ng/mL human recombinant insulin (Gibco, Cat. 12585-014)). And the cells were incubated at 37° C. with 5% CO2 and 85% humidity for 4 hours. The medium was then changed to pre-warmed PHH culture medium containing 4% polyethylene glycol (PEG) MW8000 (Sigma, Cat. P1458-50 ML) and 1% DMSO (Sigma, Cat. D2650). 5.8×10^6 genomic equivalents of HBV were added into the medium.
At 24 hours post-infection, the cells were gently washed with PBS and refreshed with PHH culture medium supplemented with 1% DMSO, and 0.25 mg/mL Matrix gel (Corning, Cat. 356237) at 200 μL per well. All plates were immediately placed in at 37° C. CO2 incubator.
24 hours later, serial dilutions of compounds made with DMSO were further diluted with the same culture medium (PHH culture medium supplemented with 1% DMSO and 0.25 mg/mL Matrix gel as described above) before they were added to the cells to reach desired final compound concentrations and 1% DMSO concentration. The medium containing the compounds were refreshed every three days.
At 9 days post-compound treatment, extracellular HBsAg level were measured with Chemiluminescence Immuno Assay (CLIA) kit (Autobio, HBsAg Quantitative CLIA). Extracellular HBV DNA was extracted by MagNA Pure 96 system (Roche) and then determined by quantitative PCR with the following primers and probe: […]
HBsAg IC50 and HBV DNA IC50 values were derived from the dose-response curve using 4 parameter logistic curve fit method. The compounds of formula (I) have HBsAg IC50<20 μM, particularly <1 μM; and HBV DNA IC50<50 μM.

As for `O=C(O)CCOc1cc(C(F)(F)F)ccc1-c1cc(=O)c2cccc(Cl)c2o1` [Example A001, 3-[2-(8-chloro-4-oxo-chromen-2-yl)-5-(trifluoromethyl)phenoxy]propanoic acid], in data set [1], the “Clearance of Human microsome” value was determined as 10.0 mL/min/kg. Further, the values for the IC50 in data set [2] and in data set [3] were 1640 nM and 1190 nM, respectively.
The like results for `O=C(O)CCOc1cc(Br)ccc1-c1cc(=O)c2cccc(Cl)c2o1` [Example A004, 3-[5-bromo-2-(8-chloro-4-oxo-chromen-2-yl)phenoxy]propanoic acid] were, in that order, 6.15 mL/min/kg, 374 nM and 6610 nM.
The like results for `Cc1cc(-c2cc(=O)c3cccc(Cl)c3o2)c(OCCC(=O)O)cc1Cl` [Example A005, 3-[5-chloro-2-(8-chloro-4-oxo-chromen-2-yl)-4-methyl-phenoxy]propanoic acid] were, in that order, 6.66 mL/min/kg, 1370 nM and 553 nM.
On the same counts, the results for `COc1cc(-c2cc(=O)c3cccc(Cl)c3o2)c(OCCC(=O)O)cc1Br` [Example A007, 3-[5-bromo-2-(8-chloro-4-oxo-chromen-2-yl)-4-methoxy-phenoxy]propanoic acid] are 6.15 mL/min/kg, 3150 nM and 2730 nM.
As to `COc1cc(-c2cc(=O)c3cccc(Cl)c3o2)c(OCCC(=O)O)cc1Cl` [Example A008, 3-[5-chloro-2-(8-chloro-4-oxo-chromen-2-yl)-4-methoxy-phenoxy]propanoic acid], in data set [1], the “Clearance of Human microsome” value is listed as 6.15 mL/min/kg. The results for the IC50 in data set [2] and in data set [3] were 2260 nM and 948 nM, respectively.
Consider `O=C(O)CCOc1cc(OC(F)(F)F)ccc1-c1cc(=O)c2cccc(Cl)c2o1` [Example A009, 3-[2-(8-chloro-4-oxo-chromen-2-yl)-5-(trifluoromethoxy)phenoxy]propanoic acid], for which the “Clearance of Human microsome” value in data set [1] turned out to be 6.57 mL/min/kg. For the same compound, the IC50 came out at 403 nM in data set [2] and 1480 nM in data set [3].
On the same counts, the results for `COc1cc(OCCC(=O)O)c(-c2cc(=O)c3cccc(Cl)c3o2)cc1OC` [Example A010, 3-[2-(8-chloro-4-oxo-chromen-2-yl)-4,5-dimethoxy-phenoxy]propanoic acid] are 6.15 mL/min/kg, 1400 nM and 3000 nM.
In the case of `Cc1cc(-c2cc(=O)c3cccc(Cl)c3o2)c(OCCC(=O)O)cc1OC(F)(F)F` [Example A017, 3-[2-(8-chloro-4-oxo-chromen-2-yl)-4-methyl-5-(trifluoromethoxy)phenoxy]propanoic acid], the “Clearance of Human microsome” value in data set [1] amounted to 9.98 mL/min/kg. The IC50 in data set [2] amounted to 3170 nM; in data set [3] it was 1840 nM.
The like results for `O=C(O)CCOc1cc(OC(F)(F)F)ccc1-c1cc(=O)c2cccc(Br)c2o1` [Example A022, 3-[2-(8-bromo-4-oxo-chromen-2-yl)-5-(trifluoromethoxy)phenoxy]propanoic acid] were, in that order, 6.15 mL/min/kg, 983 nM and 754 nM.
On the same counts, the results for `Cc1ccc(-c2cc(=O)c3cccc(Br)c3o2)c(OCCC(=O)O)c1` [Example A024, 3-[2-(8-bromo-4-oxo-chromen-2-yl)-5-methyl-phenoxy]propanoic acid] are 6.61 mL/min/kg, 570 nM and 4090 nM.
On to `O=C(O)CCOc1cc(Br)cnc1-c1cc(=O)c2cccc(Cl)c2o1` [Example A026, 3-[[5-bromo-2-(8-chloro-4-oxo-chromen-2-yl)-3-pyridyl]oxy]propanoic acid], for which the “Clearance of Human microsome” value in data set [1] was 6.15 mL/min/kg. Further, the IC50 in data set [2] and in data set [3] was 2970 nM throughout.
As for `CC(CC(=O)O)Oc1cc(C(F)(F)F)ccc1-c1cc(=O)c2cccc(Cl)c2o1` (stereo not shown) [Example A039, 3-[2-(8-chloro-4-oxo-chromen-2-yl)-5-(trifluoromethyl)phenoxy]butanoic acid], in data set [1], the “Clearance of Human microsome” value is recorded as 6.37 mL/min/kg. The half-inhibitory concentration (IC50) in data set [2] is 142 nM; in data set [3], 7080 nM.
On the same counts, the results for `CC(CC(=O)O)OC(=O)CC(C)Oc1cc(C(F)(F)F)ccc1-c1cc(=O)c2cccc(Cl)c2o1` (stereo not shown) [Example A040, 3-[3-[2-(8-chloro-4-oxo-chromen-2-yl)-5-(trifluoromethyl)phenoxy]butanoyloxy]butanoic acid] are 6.15 mL/min/kg, 525 nM and 7940 nM.
The like results for `COc1cc(-c2cc(=O)c3cccc(Cl)c3o2)c(OCCC(=O)O)cc1C(F)(F)F` [Example A043, 3-[2-(8-chloro-4-oxo-chromen-2-yl)-4-methoxy-5-(trifluoromethyl)phenoxy]propanoic acid] were, in that order, 6.15 mL/min/kg, 2250 nM and 6690 nM.
On the same counts, the results for `Cc1cc(-c2cc(=O)c3cccc(Cl)c3o2)c(OCCC(=O)O)cc1C(F)(F)F` [Example A044, 3-[2-(8-chloro-4-oxo-chromen-2-yl)-4-methyl-5-(trifluoromethyl)phenoxy]propanoic acid] are 6.15 mL/min/kg, 2520 nM and 1770 nM.
As for `Cc1ccc(-c2cc(=O)c3cccc(Cl)c3o2)c(OCC(=O)O)c1` [Example A049, 2-[2-(8-chloro-4-oxo-chromen-2-yl)-5-methyl-phenoxy]acetic acid], in data set [1], the “Clearance of Human microsome” value was found to be 6.15 mL/min/kg. The values for the IC50 in data set [2] and in data set [3] were 87.2 nM and 1260 nM, respectively.
Turning to `O=c1cc(-c2ccc(Br)cc2OCCO[C@H]2C[C@@H](C(=O)O)C2)oc2c(Cl)ccc(C(F)(F)F)c12` [Example C049-A, Cis-3-[2-[5-bromo-2-[8-chloro-4-oxo-5-(trifluoromethyl)chromen-2-yl]phenoxy]ethoxy]cyclobutanecarboxylic acid], the values for the IC50 in data set [2] and in data set [3] were 77.5 nM and 7310 nM, respectively.
The like results for `Cc1cc(-c2cc(=O)c3cccc(Cl)c3o2)c(OCCO[C@H]2C[C@@H](C(=O)O)C2)cc1Cl` [Example C055-A, Cis-3-[2-[5-chloro-2-(8-chloro-4-oxo-chromen-2-yl)-4-methyl-phenoxy]ethoxy]cyclobutanecarboxylic acid] were, in that order, 4030 nM and 9270 nM.
The like results for `O=C(O)C1CC(OCCOc2cc(N3CCOC3=O)ccc2-c2cc(=O)c3cccc(Cl)c3o2)C1` (stereo not shown) [Example C062, 3-[2-[2-(8-chloro-4-oxo-chromen-2-yl)-5-(2-oxooxazolidin-3-yl)phenoxy]ethoxy]cyclobutanecarboxylic acid] were, in that order, 1510 nM and 6790 nM.
The like results for `O=c1cc(-c2ccc(N3CCOCC3)cc2OCCO[C@H]2C[C@H](C(=O)O)C2)oc2c(Cl)cccc12` [Example C067-B, trans-3-[2-[2-(8-chloro-4-oxo-chromen-2-yl)-5-morpholino-phenoxy]ethoxy]cyclobutanecarboxylic acid] were, in that order, 8360 nM and 4740 nM.
For the compound `NC(=O)COCC(O)COc1cc(Br)ccc1-c1cc(=O)c2cccc(Cl)c2o1` (stereo not shown) [Example C114, 2-[3-[5-bromo-2-(8-chloro-4-oxo-chromen-2-yl)phenoxy]-2-hydroxy-propoxy]acetamide], the results for the IC50 in data set [2] and in data set [3] were 1240 nM and 9190 nM, respectively.
